Experimental data reported in US9408854B2, “Methods and systems for pharmacogenomic treatment of cardiovascular conditions” (ROSTAQUO S.P.A., priority 2009, dated 2016).

System: hypertensive patients
Assay: Pharmacogenomic study: change of office systolic blood pressure (DSBP5_0) after 5 weeks of rostafuroxin vs placebo, by genotype
Type: in vivo, human
Procedure: A pharmacogenomic study was performed to ascertain the effect of genetic variations on an individual response to rostafuroxin. The sample for the pharmacogenomic study consisted of 342 individuals that were genotyped with the Human1M array from Illumina using Human1M Duo CHIP genotyping Bead Chip according to procedure described in [Ref. 10, 11, 12]. Among the individuals, 169 were administered the placebo treatment and 173 the active drug (rostafuroxin) in the first period (5 weeks) with demographics as in [Ref 13]. In particular, patients were randomized to one of the following oral doses of rostafuroxin: 0.05, 0.15, 0.5, 1.5, or 5 mg/day for 5 weeks. Each dose had to be compared to a placebo in a crossover design.
For the above sample of individuals a genetic association analysis, was performed to associate the phenotype of the tested individuals with the SNPs detected in the individuals. The selected phenotype of interest was the blood pressure response. The SNPs selected for detection were the 1111170 SNPs on autosomal chromosomes of the individual.
The genetic analysis was performed according to a quantitative genetic association design where the phenotype of interest is a quantitative variable (QT), and the variables (factors) affecting the distribution of the phenotype of interest are SNPs, therapy (placebo, rostafuroxin) and the SNP*therapy interaction.
In particular, the quantitative phenotype selected for the statistical analyses was the difference in mmHg between the office Systolic Blood Pressure (SBP) at the end of first treatment period (SBP_5) and the office Systolic Blood Pressure at baseline after one month of run-in (SBP_0) and is herein also identified as DSBP5_0. The selected QT phenotype and other factors affecting distribution of the phenotype of interest were then analyzed according to the following quantitative trait interaction test Phenotype=SNP+therapy+SNP*therapy as illustrated in further details below.
In particular, in Table 2 the descriptive statistics of DSBP5_0 for the entire sample and for the patients treated with placebo and rostafuroxin are listed. The rather modest basal level of SBP can be explained in view of the recruitment of patients with “mild” hypertension (SBP range 140-179 mmHg), required by the inclusion of a placebo arm.
Those SNPs were further selected to identify the genotypes with the largest response to rostafuroxin compared to placebo by performing a Statistical ANOVA analysis using STATA software in placebo and rostafuroxin with DSBP5_0 as dependent variable and the candidate significant SNPs as independent variables. In particular, to select the genotypes of the interactions between two SNPs with the largest response to rostafuroxin compared to placebo, the Applicants performed an ANOVA statistics in placebo and rostafuroxin with DSBP5_0 as dependent variable and the interaction s between SNPs as independent variables. The Applicants report an example of this procedure in FIG. 5: interaction between rs8899 and rs4678. The Applicants selected the interaction between the genotype AA of rs8899 and the genotype BB of rs4678 because it presents the greatest remarkable decrement in the therapy group and not in the placebo group.
In particular, to select the genotypes with the largest response to rostafuroxin compared to placebo, the Applicants performed an ANOVA statistics (oneway) in placebo and rostafuroxin with DSBP5_0 as dependent variable and the significant SNPs as independent variables.

[1] = GWS SNP ga001619 (PIGR) genotype 1
[2] = GWS SNP rs188334 (FAIM3) genotype 1
[3] = GWS SNP rs721207 (LOC131691) genotype 3
[4] = GWS SNP rs748140 (PIGR) genotype 1
[5] = GWS SNP rs1110446 (TRIM31) genotype 1
[6] = GWS SNP rs1110446 (TRIM31) genotype 2
[7] = GWS SNP rs1362126 (HLA-F) genotype 3
[8] = GWS SNP rs1901139 (LOC644192) genotype 3
[9] = GWS SNP rs1998394 (LOC728316) genotype 3
[10] = GWS SNP rs2275531 (PIGR) genotype 3
[11] = GWS SNP rs2345088 (KCNS3) genotype 1
[12] = GWS SNP rs2345088 (KCNS3) genotype 2
[13] = GWS SNP rs2427832 (LOC649458) genotype 2
[14] = GWS SNP rs2461911 (LOC389970) genotype 1
[15] = GWS SNP rs2517718 (HLA-A) genotype 1
[16] = GWS SNP rs2555500 (LOC389174) genotype 1
[17] = GWS SNP rs2743951 (RP3-377H14.5) genotype 3
[18] = GWS SNP rs3087816 (SLC30A7) genotype 2
[19] = GWS SNP rs3893464 (HCG9) genotype 1
[20] = GWS SNP rs4710592 (RCADH5) genotype 3
[21] = GWS SNP rs4998662 (FAM46A) genotype 2
[22] = GWS SNP rs5013093 (HLA-G) genotype 1
[23] = GWS SNP rs6457110 (HCG9) genotype 1
[24] = GWS SNP rs6718282 (KCNS3) genotype 2
[25] = GWS SNP rs7216331 (COX10) genotype 2
[26] = GWS SNP rs7521668 (DPH5) genotype 1
[27] = GWS SNP rs7521668 (DPH5) genotype 2
[28] = GWS SNP rs8179654 (LOC642727) genotype 3

In the case of `C[C@]12CC[C@H](O)C[C@H]1CC[C@@H]1[C@@H]2CC[C@]2(C)[C@@](O)(c3ccoc3)CC[C@]12O` [rostafuroxin, 17β-(3-furyl)-5β-androstane-3β,14β,17α-triol], the “higher response in blood pressure drop, low doses vs high doses” value (0.05 to 0.50 mg/day vs 1.5 to 5 mg/day) is reported as “+50%”, the “DELTA delta Therapy placebo” value [1] is reported as 9.252 mmHg and the DSBP5_0 therapy [1] is reported as −13.615 mmHg. The “DELTA delta Therapy placebo” value [2] was 8.146 mmHg, the DSBP5_0 therapy [2] was −11.82 mmHg and the “DELTA delta Therapy placebo” value [3] was 6.934 mmHg. For the same compound, the DSBP5_0 therapy [3] was −11.58 mmHg, the “DELTA delta Therapy placebo” value [4] was 6.506 mmHg and the DSBP5_0 therapy [4] was −11.28 mmHg. For the same compound, the “DELTA delta Therapy placebo” value [5] was 20.59 mmHg, the DSBP5_0 therapy [5] was −16.37 mmHg and the “DELTA delta Therapy placebo” value [6] was 3.54 mmHg. For the same compound, the DSBP5_0 therapy [6] was −10.13 mmHg, the “DELTA delta Therapy placebo” value [7] was 4.93 mmHg and the DSBP5_0 therapy [7] was −10.29 mmHg. The “DELTA delta Therapy placebo” value [8] was 10.52 mmHg, the DSBP5_0 therapy [8] was −12.11 mmHg and the “DELTA delta Therapy placebo” value [9] was 5.788 mmHg. For the same compound, the DSBP5_0 therapy [9] was −10.51 mmHg, the “DELTA delta Therapy placebo” value [10] was 7.817 mmHg and the DSBP5_0 therapy [10] was −12.18 mmHg. For the same compound, the DSBP5_0 therapy (GWS SNP rs2326912 (TMEM200A) genotype 1) was −11.7 mmHg, the “DELTA delta Therapy placebo” value [11] was 33.93 mmHg and the DSBP5_0 therapy [11] was −30.5 mmHg. For the same compound, the “DELTA delta Therapy placebo” value [12] was 3.512 mmHg, the DSBP5_0 therapy [12] was −10.69 mmHg and the “DELTA delta Therapy placebo” value [13] was 6.845 mmHg. The DSBP5_0 therapy [13] was −10.38 mmHg, the “DELTA delta Therapy placebo” value [14] was 22.82 mmHg and the DSBP5_0 therapy [14] was −20.6 mmHg. The “DELTA delta Therapy placebo” value [15] was 6.212 mmHg, the DSBP5_0 therapy [15] was −11.83 mmHg and the “DELTA delta Therapy placebo” value [16] was 5.2 mmHg. The DSBP5_0 therapy [16] was −10.52 mmHg, the “DELTA delta Therapy placebo” value [17] was 5.62 mmHg and the DSBP5_0 therapy [17] was −11.17 mmHg. For the same compound, the “DELTA delta Therapy placebo” value [18] was 7.021 mmHg, the DSBP5_0 therapy [18] was −13.044 mmHg and the “DELTA delta Therapy placebo” value [19] was 9.016 mmHg. The DSBP5_0 therapy [19] was −10.99 mmHg, the “DELTA delta Therapy placebo” value [20] was 20.075 mmHg and the DSBP5_0 therapy [20] was −23.825 mmHg. The “DELTA delta Therapy placebo” value [21] was 13.54 mmHg, the DSBP5_0 therapy [21] was −15.81 mmHg and the “DELTA delta Therapy placebo” value [22] was 22.09 mmHg. The DSBP5_0 therapy [22] was −20.49 mmHg, the “DELTA delta Therapy placebo” value [23] was 5.862 mmHg and the DSBP5_0 therapy [23] was −10.35 mmHg. For the same compound, the DSBP5_0 therapy (GWS SNP rs6718282 (KCNS3) genotype 1) was −41.3 mmHg, the “DELTA delta Therapy placebo” value [24] was 13.825 mmHg and the DSBP5_0 therapy [24] was −12.625 mmHg. The “DELTA delta Therapy placebo” value [25] was 13.91 mmHg, the DSBP5_0 therapy [25] was −15.81 mmHg and the “DELTA delta Therapy placebo” value [26] was 28.95 mmHg. For the same compound, the DSBP5_0 therapy [26] was −25 mmHg, the “DELTA delta Therapy placebo” value [27] was 7.021 mmHg and the DSBP5_0 therapy [27] was −13.044 mmHg. The “DELTA delta Therapy placebo” value [28] was 8.442 mmHg, the DSBP5_0 therapy [28] was −10.95 mmHg and the “DELTA delta Therapy placebo” value (GWS SNP rs9361863 (LOC728360) genotype 1) was 19.6 mmHg.
